Data as given in PubChem BioAssay (NCI).
Where “and” joins values, the source holds several entries; their conditions need not be identical. Equal values may be shown once.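 Protocol summary: plate cells (96-well), add compound at 5 concentrations, incubate 48 h, interpolate endpoints linearly. At the GI50, growth is halved. TGI is the concentration that stops growth completely.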

Key:
Test in all cases: NCI anticancer screen, dose series, 48 h
[1] = system: HL-60(TB) leukemia
[2] = system: HT29 colon
[3] = system: U251 CNS
[4] = system: PC-3 prostate
[5] = system: SF-539 CNS
[6] = system: UO-31 renal
[7] = system: UACC-257 melanoma
[8] = system: CCRF-CEM leukemia
[9] = system: NCI-H522 lung
[10] = system: OVCAR-8 ovarian

| Compound | TGI [1] | TGI [2] | TGI [3] | TGI [4] | TGI [5] | TGI [6] | TGI [7] | TGI [8] | TGI [9] | TGI [10] | GI50 [1] [µM] | GI50 [2] [µM] | GI50 [3] [µM] | GI50 [4] [µM] | GI50 [5] [µM] | GI50 [6] [µM] | GI50 [7] [µM] | GI50 [8] [µM] | GI50 [9] [µM] | GI50 [10] [µM] |
| --- | --- | --- | --- | --- | --- | --- | --- | --- | --- | --- | --- | --- | --- | --- | --- | --- | --- | --- | --- | --- |
| O=C(c1ccccc1)N1CCN(C(=S)N(C(=O)c2ccccc2)c2ccccc2)C1=S | 3.81 µM | 31.2 µM | 22.6 µM | 20.5 µM | 7.07 µM | 6.43 µM | 22.4 µM | > 25.8 µM | 6.9 µM | 13.3 µM | – | – | – | – | – | – | – | – | – | – |
| COc1ccc2nc3ccc(OC)cc3c(SCCO)c2c1 | 19.9 µM | > 48.2 µM | > 100 µM | > 100 µM | > 72.4 µM | > 100 µM | > 100 µM | > 31.1 µM | > 34.9 µM | > 55.4 µM | – | – | – | – | – | – | – | – | – | – |
| O=C1CC2(c3ccccc3)ON=C(c3ccccc3)N2c2ccccc2N1 (stereo not drawn) | > 100 µM | > 100 µM | > 100 µM | > 100 µM | > 100 µM | > 100 µM | > 100 µM | > 100 µM | > 100 µM | > 100 µM | – | – | – | – | – | – | – | – | – | – |
| N#CCc1n[nH]c(Cc2ccccc2)n1 | > 100 µM | > 100 µM | > 100 µM | > 100 µM | > 100 µM | > 100 µM | > 100 µM | > 100 µM | > 100 µM | > 100 µM | – | – | – | – | – | – | – | – | – | – |
| C[C@]12CC[C@H]3[C@@H](CC=C4C[C@@H](N5CCCC5)CC[C@@]43C)[C@@H]1C[C@H](N1CCOCC1)[C@@H]2O | > 100 µM | > 100 µM | > 100 µM | > 100 µM | > 100 µM | > 100 µM | > 100 µM | > 100 µM | > 100 µM | > 100 µM | – | – | – | – | – | – | – | – | – | – |
| COC(=O)CCC(=O)NC1=C(NCc2ccccc2)C(=O)c2ccccc2C1=O | > 100 µM | > 100 µM | 94.8 µM | > 100 µM | 43.8 µM | > 100 µM | 34.1 µM | > 100 µM | 50 µM | > 100 µM | – | – | – | – | – | – | – | – | – | – |
| [N-]=[N+]=C1N=CN=C1c1ncn[nH]1 | 40.5 µM | > 100 µM | > 100 µM | > 100 µM | 52.2 µM | 86.3 µM | > 100 µM | 27.6 µM | > 100 µM | > 100 µM | – | – | – | – | – | – | – | – | – | – |
| C[n+]1c(-c2ccc(/C=N/NC(=N)N/N=C/c3ccc(-c4cn5cc(Cl)ccc5[n+]4C)cc3)cc2)cn2cc(Cl)ccc21 | > 100 µM | > 100 µM | > 100 µM | > 100 µM | > 100 µM | > 100 µM | > 100 µM | > 100 µM | > 100 µM | > 100 µM | – | – | – | – | – | – | – | – | – | – |
| O=CN1CCN(C(=O)c2ccc(Cl)cc2Cl)C1=S | 69.2 µM | > 100 µM | > 100 µM | > 100 µM | > 100 µM | – | > 100 µM | > 100 µM | 46.8 µM | > 100 µM | – | – | – | – | – | – | – | – | – | – |
| CCCCCCCCOC1C(O)C(O)C(O)C(O)C12CO2 (stereo not drawn) | > 100 µM | > 100 µM | > 100 µM | > 100 µM | > 100 µM | > 100 µM | > 100 µM | > 100 µM | > 100 µM | > 100 µM | – | – | – | – | – | – | – | – | – | – |
| CC(=O)OC(/C=C/c1ccccc1)P1(=O)N(CC(C)(C)C)[C@@H]2CCCC[C@H]2N1CC(C)(C)C (stereo partly drawn) | 21.6 µM and 18.7 µM | 17.6 µM and 15.6 µM | 22.6 µM and 19.7 µM | 12.1 µM and 10.1 µM | 21.2 µM and 28.6 µM | 19.6 µM and 17 µM | 13.2 µM and 11.6 µM | 47.8 µM and 34.1 µM | 13.3 µM and 12.8 µM | 19.7 µM and 21.6 µM | – | – | – | – | – | – | – | – | – | – |
| OC(c1cc2ccccc2o1)c1cc2ccccc2s1 (stereo not drawn) | > 10 µM | > 10 µM | > 10 µM | > 10 µM | > 10 µM | > 10 µM | > 10 µM | > 10 µM | > 10 µM | > 10 µM | – | – | – | – | – | – | – | – | – | – |
| CC1(C)N=C(C(N)=O)c2ncn(N)c2N1 | > 100 µM | > 100 µM | > 100 µM | > 100 µM | > 100 µM | – | > 100 µM | > 100 µM | > 100 µM | > 100 µM | – | – | – | – | – | – | – | – | – | – |
| COC(=O)CCC(=O)NC1=C(Nc2ccc(OC)cc2)C(=O)c2ccccc2C1=O | > 68 µM | 30.1 µM | 57.5 µM | > 92.2 µM | 27.9 µM | 32.1 µM | 16.1 µM | > 85.2 µM | 24.3 µM | 75.6 µM | – | – | – | – | – | – | – | – | – | – |
| S=C(NC1=NCC(CN2CCN(c3ccccc3)CC2)O1)Nc1ccccc1 (stereo not drawn) | > 100 µM | > 100 µM | > 100 µM | > 100 µM | > 100 µM | 97.5 µM | > 100 µM | > 100 µM | > 100 µM | > 100 µM | – | – | – | – | – | – | – | – | – | – |
| CCOC(=O)c1ccc(Nc2c3c(nc4ccccc24)CCCC3)cc1 | > 100 µM | > 100 µM | > 100 µM | > 100 µM | > 100 µM | > 100 µM | > 100 µM | > 100 µM | > 27.7 µM | > 100 µM | – | – | – | – | – | – | – | – | – | – |
| O=C(Nc1cccc(-n2ccc3c(NC(=O)c4ccccc4)nccc32)c1)Nc1cc(C(F)(F)F)cc(C(F)(F)F)c1 | 5.01 µM | 4.31 µM | 7.68 µM | > 50 µM | 4.76 µM | > 50 µM | 15.2 µM | > 50 µM | 2.69 µM | 5.14 µM | 1.72 | 1.37 | 1.63 | 1.58 | 1.39 | 2.4 | 2.45 | 1.76 | 0.83 | 1.65 |
